In publication PMC9780888, “4-Isobutylmethcathinone—A Novel Synthetic Cathinone with High In Vitro Cytotoxicity and Strong Receptor Binding Preference of Enantiomers” (Pharmaceuticals, 2022):
Structures can show the parent of a compound that is named as a salt.

Molecular target: T1, dopamine receptor DAR3 (Homo sapiens, UniProt P35462)
T1 construct: host or cells: HTLA (HEK 293-derived)
Assay: PRESTO-Tango β-arrestin 2 recruitment assay, DAR3
Type: cell-based
Details: for increase in RLU compared to the control: DAR3, 500 nM
Description: However, binding to a specific receptor/transporter and, thus, the mechanism of action of a given cathinone always depends on the specific structure of the evaluated compound [37]. In this study, the binding activity of IBMcat and its enantiomers was verified by PRESTO-Tango (parallel receptor expression and screening via transcriptional output, with transcriptional activation following arrestin-2 translocation) assay using the HTLA cell line stably producing β-arrestin-2 in a fusion with TEV and luciferase production driven by tTA. For this purpose, the HTLA cells were transiently transfected with plasmid DNA encoding the dopamine receptors type 1-4 (DAR1-4), which also contain the TEV protease cleavage site followed by tTA at the 3’-end (DAR1-Tango, DAR2-Tango, DAR3-Tango, DAR4-Tango). In the case of the receptor activation by a ligand, in transfected cells, the receptor is desensitized by β-arrestin fused to TEV protease. This brings the TEV protease close to the site that specifically cleaves and, thus, the transcription factor can be cleaved. The transcription factor then translocates to the cell nucleus, in which it triggers the transcription of the target gene for luciferase production which can be determined by the light emitted from luciferin conversion to oxyluciferin. Here, the pronounced luminescence was recorded for all DAR1-4 types in HTLA cells treated with IBMCat and its enantiomers (Figure 8).
The HTLA cell line was used for the PRESTO-Tango β-arrestin recruitment assay. […]
The transfected HTLA cells were incubated for 24 h, and then 1 × 10^4 cells were seeded per well of a white 96-well clear bottom plate (Brand, Germany) in 40 μL of DMEM with 1% charcoal-stripped FBS (Thermo Fisher Scientific, USA). […] After 5 min., the luminescence was measured using a multi-mode microplate reader SpectraMax iD5 (Molecular Devices, San Jose, CA, USA) measuring the entire wavelength spectrum. All samples were measured in quadruplicates. The data were evaluated by Prism 7 software (GraphPad, San Jose, CA, USA).

T1 sequence (P35462 whole entry): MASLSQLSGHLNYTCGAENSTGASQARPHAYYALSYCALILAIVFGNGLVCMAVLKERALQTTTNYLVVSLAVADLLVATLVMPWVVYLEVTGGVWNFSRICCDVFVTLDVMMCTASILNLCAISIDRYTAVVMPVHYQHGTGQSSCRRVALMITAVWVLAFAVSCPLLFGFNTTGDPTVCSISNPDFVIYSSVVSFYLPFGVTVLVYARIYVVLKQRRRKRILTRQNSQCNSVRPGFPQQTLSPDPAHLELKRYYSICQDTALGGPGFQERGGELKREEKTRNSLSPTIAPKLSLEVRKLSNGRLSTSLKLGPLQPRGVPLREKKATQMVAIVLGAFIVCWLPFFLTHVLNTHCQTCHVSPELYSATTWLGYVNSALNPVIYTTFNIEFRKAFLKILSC

CNC(C)C(=O)c1ccc(CC(C)C)cc1.Cl (stereo not drawn) [IBMcat, 4-isobutylmethcathinone hydrochloride]
increase in RLU compared to the control: 5 fold

CN[C@@H](C)C(=O)c1ccc(CC(C)C)cc1 [S-IBMCat, (S)-4-isobutylmethcathinone hydrochloride]
increase in RLU compared to the control: 6.5 fold

CN[C@H](C)C(=O)c1ccc(CC(C)C)cc1 [R-IBMCat]
effect on DAR3-expressing cells (0-500 nM): no effect
